Counter-ions that a name gives are not always drawn.
Biological target: T1, human OCT1 (Homo sapiens, UniProt O15245)
T1 construct: host or cells: HEK293, baculovirus transduction (CMV promoter), transient
T1 sequence (O15245 1-554): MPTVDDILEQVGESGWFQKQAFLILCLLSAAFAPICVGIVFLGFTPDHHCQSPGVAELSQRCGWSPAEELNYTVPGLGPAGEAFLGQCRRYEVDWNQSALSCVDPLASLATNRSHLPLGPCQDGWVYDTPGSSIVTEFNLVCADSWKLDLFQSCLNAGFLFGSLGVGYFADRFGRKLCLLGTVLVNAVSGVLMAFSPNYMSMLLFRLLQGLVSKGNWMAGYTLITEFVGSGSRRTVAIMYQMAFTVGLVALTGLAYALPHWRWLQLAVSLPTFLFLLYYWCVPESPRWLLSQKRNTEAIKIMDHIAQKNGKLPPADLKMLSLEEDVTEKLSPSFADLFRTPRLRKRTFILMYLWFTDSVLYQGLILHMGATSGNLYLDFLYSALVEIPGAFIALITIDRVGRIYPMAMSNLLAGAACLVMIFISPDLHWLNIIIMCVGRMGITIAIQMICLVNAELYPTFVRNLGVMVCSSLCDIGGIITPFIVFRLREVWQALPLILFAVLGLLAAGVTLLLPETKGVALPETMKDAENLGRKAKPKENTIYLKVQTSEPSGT
Experiment: OCT1-mediated cellular import in transduced HEK293 cells (LC-MS/MS)
Type: cell-based
Description: HEK293 cells were modified to transiently express (a combination of) human OCT1, OCT2, MATE1, MATE2-K, or eYFP. Briefly, cDNA of the respective genes was cloned downstream of a CMV promoter into a baculovirus, of which passage three was used to transduce HEK293 cells. These cells were seeded in poly-D-lysine coated 24- or 96-wells plates and grown in a 37 °C incubator at 5% CO2. Growth was initiated at ~ 25% confluency using 375 or 125 μL cell and complete medium (DMEM + GlutaMAX™-I supplemented with 10% fetal bovine serum) suspension per well, respectively. After 24 h, cells were transduced with 30 µL virus (10 µL virus + 20 µL complete medium in case of 96-wells plates) or 2 × 15 µL virus for cells that required simultaneous expression of two transporters. Finally, 195 µL sodium butyrate (45 µL for 96-wells plates) was added to a final concentration of 2 mM to enhance protein expression.
HEK293 cells were seeded in 24-wells poly-D-lysine coated plates and transduced the subsequent day with OCT1 or OCT2 as described above. Three days following transduction, OCT1- or OCT2-mediated uptake of ten anti-malarials (AMO, ART, ATO, CQ, DHA, LUM, MQ, PQ, PG, and QN) was performed. NMQ served as a positive substrate for both OCT1 and OCT2 import. In short, cells were washed with 400 µL 37 °C HBSS-HEPES buffer followed by adding 150 µL HBSS buffer with 10 µM anti-malarial or NMQ to each well. After incubation for 15 min at 37 °C, import was stopped by washing with 400 µL ice-cold HBSS-HEPES buffer supplemented with 0.5% BSA. Following a second wash with 400 µL ice-cold HBSS-HEPES buffer, cells were lysed with 200 µL 50% (v/v) MeOH and 0.1% (v/v) formic acid (HCOOH) in water and samples were sent for quantification by mass spectrometry analysis (see “LC–MS/MS quantification of anti-malarials” section). […]
The affinity (KM) and maximum transport rate (Vmax) for OCT1 and OCT2 of PG were determined by analysing concentration-dependent uptake data from three independent experiments.
Import and export of PG and cycloguanil (CG) was assessed by single and double transduced HEK293 cells. […] Following the same procedure as for the cellular import assay described above, the import of 100 µM PG and CG was measured after 5 min incubation and data was plotted as mean pmol/mg/min ± SEM. […] Significant reduction in uptake (i.e. export by MATEs) was determined using ln transformation and a one-way repeated measures ANOVA with Dunnet’s post test.
Anti-malarial concentration in the cell lysates was quantified using an LC–MS/MS system consisting of a UPLC, a binary solvent manager, a vacuum degasser and an autosampler, coupled to a Xevo TQ-S micro triple quadrupole mass spectrometer. […]

Uptake by OCT1 (100 µM, 5 min) [pmol/mg/min]	Structure (SMILES)	Uptake by OCT1, percentage of mock-transduced control (10 µM, 15 min, 37 °C) [%]	Uptake, percentage of eYFP control cells (cells co-transduced with eYFP and OCT1, 1 µM, 1 min, pH 7.4) [%]
	[H]/N=C(\N/C(=N/[H])Nc1ccc(Cl)cc1)NC(C)C [Proguanil, proguanil hydrochloride]	301 ± 25	850 ± 60
139 ± 9	CC1(C)N=C(N)N=C(N)N1c1ccc(Cl)cc1 [Cycloguanil]		

Reference: PMC5654082 (Malaria Journal, 2017)
